For assay [1], the system named is MM1.S cells. The assay is described as follows: Cell viability. The class given is cell-based, human. The following applies: 72 h, read-out: Cell growth inhibition IC50, MM1.S.
For assay [2], the system named is UKE-1 cells. The assay is described as follows: Cell viability. Format: cell-based, human. The following applies: read-out: Cell growth inhibition IC50, UKE-1.
For another assay, the system named is SAOS2 cells. The assay is described as follows: Cell viability. Format: cell-based, human. Particulars: for pIC50: read-out: Cell growth inhibition IC50, SAOS2.
For a further assay, the system named is HCC-78 cells. In words: Cell viability. The class given is cell-based, human. Particulars: for pIC50: read-out: Cell growth inhibition IC50, HCC78.
In assay [3] the test system is MM1.S cells. The assay is described as follows: Flow cytometry cell cycle analysis, MM1.S. The class given is cell-based, human. Particulars: 0.5 μM, 24 h.
In assay [4] the test system is c-MYC, p-STAT3, c-PARP levels in MM1.S cells. In words: Immunoblotting of biomarkers in MM1.S. The class given is cell-based, human. Particulars: 6 h drug exposure. (In general: Immunoblotting shows a protein as a band on a membrane.)
Assay [5] deals with UKE-1 cells. The assay is described as follows: Development of drug resistance in UKE-1 cells. The following applies: two months, starting at IC20. The class given is cell-based, human.
Assay [6] addresses T1, BRD4-1 (Homo sapiens, UniProt O60885). The assay is described as follows: Differential scanning fluorimetry. Particulars: 100 μM inhibitor, 4 μM BRD4-1; mean of 3 experiments in quadruplicate. Format: binding. Background: DSF heats the sample and reads unfolding from a dye or from intrinsic fluorescence.
A further assay concerns BRD4. Particulars: read-out: IC50(BRD4); cited from earlier work.
Another assay deals with 931 cancer cell lines. In words: Cancer cell line screening. The class given is cell-based. Particulars: 72 h, read-out: mean IC50 across cell line panel.
Assay [7] has as its target T1, BRD4-1. The assay is described as follows: qPCR binding assay, BRD4-1. Particulars: read-out: BRD4-1 Kd, qPCR; single experiment in duplicate. For orientation: In qPCR the cycle at which signal appears reflects the starting amount.
Another assay deals with BRDT-1 (Homo sapiens, UniProt Q58F21). In words: Alpha Screen binding assay, BRDT-1. The following applies: relative to BRD4.

The values that follow come from paper PMC5457702 (Molecular cancer therapeutics, 2017).

pIC50, pKd: −log10 of the molar value. Like-named read-outs stand apart in the source and are kept apart here.

As usually defined, the pIC50 is the IC50 on a negative log10 scale, so that one unit is a factor of ten. In the case of `CC(C)(C)c1cc(NC(=O)Nc2ccc(-c3cn4c(n3)sc3cc(OCCN5CCOCC5)ccc34)cc2)no1` [Quizartinib], the pIC50 in the assay with MM1.S cells [1] (Homo sapiens, MM1.S) is under 5.00; with UKE-1 cells [2] (Homo sapiens, UKE1, 72 h) it was 5.02; in the assay with SAOS2 cells (Homo sapiens, SAOS-2, 72 h) it was under 5.00; with HCC-78 cells (Homo sapiens, HCC78, 72 h), under 5.00. Besides, the “cell cycle effect / G1 arrest” value in the assay on MM1.S cells [3] was “only slightly affected”.

Take `N#CC[C@H](C1CCCC1)n1cc(-c2ncnc3[nH]ccc23)cn1` [Ruxolitinib]: the pIC50 with MM1.S cells [1] (Homo sapiens, MM1.S) is under 5.00; in the assay with UKE-1 cells [2] (Homo sapiens, UKE1, 72 h) it was 6.77; in the assay with SAOS2 cells (Homo sapiens, SAOS-2, 72 h) it was under 5.00; with HCC-78 cells (Homo sapiens, HCC78, 72 h), under 5.00. Moreover, in the assay on MM1.S cells [3], the “cell cycle effect / G1 arrest” value was “only slightly affected”. Besides, the “onset of apoptosis, c-PARP levels” value in [4] is on record as “ineffective”. For the same compound, the “development of resistance upon prolonged exposure” value in the assay with UKE-1 cells [5] is “readily developed resistance”.

On to `Cc1cnc(Nc2ccc(N3CCN(C)CC3)cc2)nc1Nc1cccc(S(=O)(=O)NC(C)(C)C)c1` [TG101209], for which the “ΔTm, DSF” value at BRD4-1 [6] came to 6.8 °C. Also, the negative logarithm of the IC50 (pIC50) in the assay on MM1.S cells [1] (Cell titer blue) is 5.85; with UKE-1 cells [2] (72 h, Cell titer blue), 6.49; with SAOS2 cells (72 h, Cell titer blue), 5.82; in the assay with HCC-78 cells (72 h, Cell titer blue), 5.72; in the assay with BRD4, […]. In addition, in the assay on MM1.S cells [3], the “cell cycle effect / G1 arrest” value is recorded as “moderate increase of cells in G1”. Moreover, in the assay with UKE-1 cells [5], the “development of resistance upon prolonged exposure” value is on record as “readily developed resistance”.

In the case of `Cc1cnc(Nc2ccc(OCCN3CCCC3)cc2)nc1Nc1cccc(S(=O)(=O)NC(C)(C)C)c1` [TG101348], in the assay on 931 cancer cell lines, the negative logarithm of the IC50 (pIC50) was 5.00.

As a reminder, the pKd is the negative decadic logarithm of the Kd, by convention in mol/L. (+)-JQ1: the “ΔTm, DSF” value on BRD4-1 [6] is 8.8 °C. For the same compound, the negative-log Kd (pKd) at BRD4-1 [7] was 8.04. In addition, the pIC50 in the assay on MM1.S cells [1] (Cell titer blue) was 7.00; with UKE-1 cells [2] (72 h, Cell titer blue), 6.68; in the assay on SAOS2 cells (72 h, Cell titer blue) it was 5.82; in the assay on HCC-78 cells (72 h, Cell titer blue), 5.59. Besides, the “maximum fraction affected, SAOS-2” value with SAOS2 cells (72 h, Hill fit) is recorded as ~ 0.5. Moreover, the “maximum fraction affected, HCC-78” value with HCC-78 cells (72 h, Hill fit) is ~ 0.5. The “fold less active against BRDT-1” value on BRDT-1 is 7 fold. Also, the “onset of apoptosis, c-PARP levels” value in assay [4] is “ineffective”.
